Experimental data reported in the supplement of paper PMC10307832.

Key:
Assay in all cases: relative viability (nuclei count vs DMSO), 5 days (fraction); higher = more cells survive
[1] = compound: C[C@@]1(C(=O)Nc2ccc(F)nc2)CCCN1c1nc(Nc2cc(C3CC3)n[nH]2)c2cccn2n1 + CC(=O)Nc1cccc(-n2c(=O)n(C3CC3)c(=O)c3c(Nc4ccc(I)cc4F)n(C)c(=O)c(C)c32)c1 [Trametinib] (partner 0.02 µM)
In short: (§1)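 Lung cancer cell lines, seeded in 1536-well plates, were treated the following day by pin tool with a single drug or with five library-drug doses (not always all listed) in √10 steps on top of a fixed anchor-drug dose. Cells were fixed and nuclei stained in one step after 5 days, and nuclei were counted. Relative viability is the nuclei count for treated wells divided by that for vehicle wells, reported as medians of duplicate plates.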

[2] = compound: C[C@@]1(C(=O)Nc2ccc(F)nc2)CCCN1c1nc(Nc2cc(C3CC3)n[nH]2)c2cccn2n1 + COc1cc2c(Oc3ccc(NC(=O)C4(C(=O)Nc5ccc(F)cc5)CC4)cc3F)ccnc2cc1OCCCN1CCOCC1 [Foretinib] (partner 0.25 µM)
In short: as §1

[3] = compound: C[C@@]1(C(=O)Nc2ccc(F)nc2)CCCN1c1nc(Nc2cc(C3CC3)n[nH]2)c2cccn2n1 + CS(=O)(=O)N1CCN(Cc2cc3nc(-c4cccc5[nH]ncc45)nc(N4CCOCC4)c3s2)CC1 [Pictilisib] (partner 1 µM)
In short: as §1

Motesanib + Dasatinib = compound: CC1(C)CNc2cc(NC(=O)c3cccnc3NCc3ccncc3)ccc21 [Motesanib] + Cc1nc(Nc2ncc(C(=O)Nc3c(C)cccc3Cl)s2)cc(N2CCN(CCO)CC2)n1 [Dasatinib] (partner 0.075 µM)
In short: as §1

Cell Line | relative viability ([1]; first compound 0.04 µM) | relative viability ([1]; first compound 0.1265 µM) | relative viability ([1]; first compound 0.4 µM) | relative viability ([1]; first compound 1.265 µM) | relative viability ([2]; first compound 0.04 µM) | relative viability ([2]; first compound 0.1265 µM) | relative viability ([2]; first compound 0.4 µM) | relative viability ([2]; first compound 1.265 µM) | relative viability ([3]; first compound 0.04 µM) | relative viability ([3]; first compound 0.1265 µM) | relative viability ([3]; first compound 0.4 µM) | relative viability ([3]; first compound 1.265 µM) | relative viability (Motesanib + Dasatinib; first compound 0.01 µM) | relative viability (Motesanib + Dasatinib; first compound 0.03162 µM) | relative viability (Motesanib + Dasatinib; first compound 0.1 µM) | relative viability (Motesanib + Dasatinib; first compound 0.3162 µM) | relative viability (Motesanib + Dasatinib; first compound 1 µM)
H3255 | 0.543 | 0.573 | 0.494 | 0.628 | 1 | 1.1 | 0.883 | 0.787 | 0.49 | 0.423 | 0.415 | 0.371 | 0.304 | 0.38 | 0.473 | 0.302 | 0.338
201T | 0.718 | 0.663 | 0.637 | 0.676 | 0.747 | 0.629 | 0.353 | 0.573 | 0.638 | 0.622 | 0.554 | 0.614 | 0.575 | 0.519 | 0.559 | 0.595 | 0.535
NCI-H2126 | 0.447 | 0.346 | 0.336 | 0.415 | 0.885 | 0.661 | 0.485 | 0.865 | 0.456 | 0.392 | 0.394 | 0.436 | 0.598 | 0.541 | 0.597 | 0.545 | 0.635
HOP-62 | 0.406 | 0.303 | 0.313 | 0.397 | 1.14 | 1.11 | 1.02 | 1.16 | 0.882 | 0.632 | 0.525 | 0.818 | 0.658 | 0.6 | 0.715 | 0.692 | 0.757
CAL-12T | 0.333 | 0.214 | 0.351 | 0.253 | 1.15 | 1.06 | 0.897 | 0.4 | 0.41 | 0.395 | 0.463 | 0.304 | 0.414 | 0.339 | 0.479 | 0.522 | 0.546
NCI-H520 | 0.753 | 0.571 | 0.523 | 0.591 | 1.01 | 0.612 | 0.796 | 0.768 | 0.317 | 0.298 | 0.284 | 0.361 | 0.208 | 0.196 | 0.21 | 0.226 | 0.218
NCI-H1755 | 0.661 | 0.692 | 0.734 | 0.744 | 0.914 | 0.729 | 0.85 | 0.89 | 0.481 | 0.241 | 0.307 | 0.381 | 0.381 | 0.426 | 0.463 | 0.48 | 0.466
NCI-H2023 | 0.454 | 0.387 | 0.297 | 0.277 | 0.488 | 0.475 | 0.36 | 0.279 | 0.197 | 0.129 | 0.118 | 0.146 | 0.576 | 0.476 | 0.575 | 0.59 | 0.662
NCI-H2009 | 0.297 | 0.314 | 0.235 | 0.243 | 1.23 | 1.25 | 1.1 | 1.14 | 0.824 | 0.765 | 0.653 | 0.717 | 0.286 | 0.245 | 0.304 | 0.314 | 0.346
